Source: patent US20020193320A1, “C-2 modified erythromycin derivatives” (priority 1999, published 2002)

Columns and labels:
Experiment in all cases: In vitro antibacterial activity, agar dilution MIC
Type in all cases: cell-based
[1] = test system: Streptococcus Pneumonia 5649; details: code ZZA (code list: ZA), 35-37° C., 20 to 24 hours
Procedure: (§1) Representative compounds of the present invention were assayed in vitro for antibacterial activity as follows: Twelve petri dishes containing successive aqueous dilutions of the test compound mixed with 10 mL of sterilized Brain Heart Infusion (BHI) agar (Difco 0418-01-5) were prepared. Each plate was inoculated with 1:100 (or 1:10 for slow-growing strains, such as Micrococcus and Streptococcus) dilutions of up to 32 different microorganisms, using a Steers replicator block. The inoculated plates were incubated at 35-37° C. for 20 to 24 hours. In addition, a control plate, using BHI agar containing no test compound, was prepared and incubated at the beginning and end of each test.
(§2) An additional plate containing a compound having known susceptibility patterns for the organisms being tested and belonging to the same antibiotic class as the test compound was also prepared and incubated as a further control, as well as to provide test-to-test comparability.
(§3) After incubation, each plate was visually inspected. The minimum inhibitory concentration (MIC) was defined as the lowest concentration of drug yielding no growth, a slight haze, or sparsely isolated colonies on the inoculum spot as compared to the growth control.

[2] = test system: Micrococcus luteus ATCC 4698; details: code PP, BHI agar, 35-37° C., 20 to 24 hours
Procedure: as §1, §2, §3

[3] = test system: Streptococcus Pneumonia GYR 1171; details: code YY, 35-37° C., 20 to 24 hours
Procedure: as §1, §2, §3

[4] = test system: Streptococcus Pneumonia 5979; details: code ZZ, 35-37° C., 20 to 24 hours
Procedure: as §1, §2, §3

[5] = test system: Streptococcus Pneumonia ATCC 6303; details: code XX, 35-37° C., 20 to 24 hours
Procedure: as §1, §2, §3

[6] = test system: Haemophilis Influenzae DILL AMP R; details: code WW, 35-37° C., 20 to 24 hours
Procedure: as §1, §2, §3

[7] = test system: Streptococcus pyogenes EES61; details: code LL, BHI agar, 35-37° C., 20 to 24 hours
Procedure: as §1, §2, §3

[8] = test system: Staphylococcus aureus CMX 553; parameters: unit not given here; details: code FF, BHI agar, 35-37° C., 20 to 24 hours
Procedure: as §1, §2, §3

[9] = test system: Candida albicans CCH 442; parameters: unit not given here; details: code TT, BHI agar, 35-37° C., 20 to 24 hours
Procedure: as §1, §2, §3

[10] = test system: Escherichia coli JUHL; parameters: unit not given here; details: code QQ, BHI agar, 35-37° C., 20 to 24 hours
Procedure: as §1, §2, §3

[11] = test system: Staphylococcus aureus CMX 642A; parameters: unit not given here; details: code DD, BHI agar, 35-37° C., 20 to 24 hours
Procedure: as §1, §2, §3

[12] = test system: Staphylococcus aureus NCTC 10649M; parameters: unit not given here; details: code EE, BHI agar, 35-37° C., 20 to 24 hours
Procedure: as §1, §2, §3

[13] = test system: Streptococcus agalactiae CMX 508; parameters: unit not given here; details: code KK, BHI agar, 35-37° C., 20 to 24 hours
Procedure: as §1, §2, §3

[14] = test system: Enterococcus faecium ATCC X043; parameters: unit not given here; details: code II, BHI agar, 35-37° C., 20 to 24 hours
Procedure: as §1, §2, §3

[15] = test system: Staphylococcus aureus 1775; parameters: unit not given here; details: code GG, BHI agar, 35-37° C., 20 to 24 hours
Procedure: as §1, §2, §3

[16] = test system: Streptococcus bovis A-5169; parameters: unit not given here; details: code JJ, BHI agar, 35-37° C., 20 to 24 hours
Procedure: as §1, §2, §3

[17] = test system: Staphylococcus epidermidis 3519; parameters: unit not given here; details: code HH, BHI agar, 35-37° C., 20 to 24 hours
Procedure: as §1, §2, §3

[18] = test system: Streptococcus pyogenes 930; parameters: unit not given here; details: code MM, BHI agar, 35-37° C., 20 to 24 hours
Procedure: as §1, §2, §3

[19] = test system: Escherichia coli DC-2; parameters: unit not given here; details: code SS, BHI agar, 35-37° C., 20 to 24 hours
Procedure: as §1, §2, §3

[20] = test system: Staphylococcus aureus A-5177; parameters: unit not given here; details: code BB, BHI agar, 35-37° C., 20 to 24 hours
Procedure: as §1, §2, §3

[21] = test system: Escherichia coli SS; parameters: unit not given here; details: code RR, BHI agar, 35-37° C., 20 to 24 hours
Procedure: as §1, §2, §3

[22] = test system: Micrococcus luteus ATCC 9341; parameters: unit not given here; details: code OO, BHI agar, 35-37° C., 20 to 24 hours
Procedure: as §1, §2, §3

[23] = test system: Staphylococcus aureus A-5278; parameters: unit not given here; details: code CC, BHI agar, 35-37° C., 20 to 24 hours
Procedure: as §1, §2, §3

[24] = test system: Streptococcus pyogenes PIU 2548; parameters: unit not given here; details: code NN, BHI agar, 35-37° C., 20 to 24 hours
Procedure: as §1, §2, §3

[25] = test system: Staphylococcus aureus ATCC 6538P; parameters: unit not given here; details: code AA, BHI agar, 35-37° C., 20 to 24 hours
Procedure: as §1, §2, §3

[26] = test system: Mycobacterium smegmatis ATCC 114; parameters: unit not given here; details: code UU, BHI agar, 35-37° C., 20 to 24 hours
Procedure: as §1, §2, §3

[27] = test system: Nocardia Asteroides ATCC 99700; parameters: unit not given here; details: code VV, BHI agar, 35-37° C., 20 to 24 hours
Procedure: as §1, §2, §3

Compound	Antibacterial Activity (MIC) [8]	Antibacterial Activity (MIC) [9]	Antibacterial Activity (MIC) [10]	Antibacterial Activity (MIC) [11]	Antibacterial Activity (MIC) [12]	Antibacterial Activity (MIC) [13]	Antibacterial Activity (MIC) [14]	Antibacterial Activity (MIC) [15]	Antibacterial Activity (MIC) [16]	Antibacterial Activity (MIC) [17]	Antibacterial Activity (MIC) [18]	Antibacterial Activity (MIC) [19]	Antibacterial Activity (MIC) [20]	Antibacterial Activity (MIC) [21]	Antibacterial Activity (MIC) [22]	Antibacterial Activity (MIC) [23]	Antibacterial Activity (MIC) [24]	Antibacterial Activity (MIC) [25]	Antibacterial Activity (MIC) [26]	Antibacterial Activity (MIC) [27]	further results
C=CCC1(C)C(=O)OC(CC)C2(C)OC(=O)NC2C(C)C(=O)C(C)CC(C)(OCC=Cc2cnc3ccccc3c2)C(OC2OC(C)CC(N(C)C)C2O)C(C)C1=O (stereo not drawn) [Example 4, Compound of formula (II): R^a is —CH2CH═CH—(3-quinolinyl), R^b is H, Y and Z together are O, T is —NH—, R is —CH2CH═CH2]	0.39	>100	>100	0.78	0.78	0.2	0.2	>100	0.05	0.39	12.5	>100	0.39	3.1	0.1	>100	0.78	0.78	3.1	0.1	Antibacterial Activity (MIC) [1]: 2; Antibacterial Activity (MIC) [2]: 0.78; Antibacterial Activity (MIC) [3]: 0.25; Antibacterial Activity (MIC) [4]: 64; Antibacterial Activity (MIC) [5]: 0.25; Antibacterial Activity (MIC) [6]: 16; Antibacterial Activity (MIC) [7]: 0.1
CCC1OC(=O)C(C)(O)C(=O)C(C)C(OC2OC(C)CC(N(C)C)C2O)C(C)(OCC=Cc2cnc3ccccc3c2)CC(C)C(=O)C(C)C2NC(=O)OC12C (stereo not drawn) [Example 8, Compound of formula (II): R^a is —CH2CH═CH—(3-quinolinyl), R^b is H, Y and Z together are O, T is —NH—, R is —OH,]	0.78	>100	>100	0.39	0.78	0.01	0.2	>100	0.02	0.39	50	>100	0.39	0.2	0.02	>100	0.39	0.39	3.1	0.39	Antibacterial Activity (MIC) [1]: 0.5; Antibacterial Activity (MIC) [2]: 0.2; Antibacterial Activity (MIC) [3]: 0.03; Antibacterial Activity (MIC) [4]: 128; Antibacterial Activity (MIC) [5]: 0.03; Antibacterial Activity (MIC) [6]: 16; Antibacterial Activity (MIC) [7]: 0.02
C#CCOC1(C)CC(C)C(=O)C(C)C2NC(=O)OC2(C)C(CC)OC(=O)C(C)(CC=Cc2ccccc2)C(=O)C(C)C1OC1OC(C)CC(N(C)C)C1O (stereo not drawn) [Example 9, Compound of formula (II): R^a is —CH2C≡CH, R^b is H, Y and Z together are O, T is —NH—, R is —CH2CH≡CH—(phenyl)]	3.1	>100	>100	3.1	12.5	1.56	3.1	100	0.78	6.2	50	>100	3.1	6.2	1.56	>100	3.1	3.1	12.5	1.56	Antibacterial Activity (MIC) [1]: 8; Antibacterial Activity (MIC) [2]: 3.1; Antibacterial Activity (MIC) [3]: 1; Antibacterial Activity (MIC) [4]: 64; Antibacterial Activity (MIC) [5]: 1; Antibacterial Activity (MIC) [6]: >64; Antibacterial Activity (MIC) [7]: 1.56
Compound of formula (II): R^a is CH3, R^b is H, Y and Z together are O, T is —N(W(R^g)-, W is —(CH2)p-, p is 4, R^g is phenyl, R is —OH [Example 2]	1.56	100	>100	3.1	1.56	0.2	0.39	100	0.2	3.1	25	>100	1.56	6.2	0.39	100	0.39	1.56	3.1	3.1	Antibacterial Activity (MIC) ([1]; unit assumed): 1 µg/mL; Antibacterial Activity (MIC) ([2]; unit assumed): 0.78 µg/mL; Antibacterial Activity (MIC) ([3]; unit assumed): 0.25 µg/mL; Antibacterial Activity (MIC) ([4]; unit assumed): 32 µg/mL; Antibacterial Activity (MIC) ([5]; unit assumed): 0.5 µg/mL; Antibacterial Activity (MIC) ([6]; unit assumed): 64 µg/mL; Antibacterial Activity (MIC) ([7]; unit assumed): 0.1 µg/mL
